# In patent publication US8389573B2, “Glycyrrhetinic acid derivatives” (Wellington Laboratories Inc., priority 2006, dated 2013):
# Assays:
# SW480 cells = experiment: Western blot analysis in SW480 cells; assay type: cell-based, human; settings: SW480, treatment for 3 days
# Method: SW-480 and HT-29 (3×10^5) cells were seeded in six-well plates in DMEM/Ham's F-12 media containing 2.5% charcoal-stripped FBS for 24 h and then treated with either the vehicle (DMSO) or the indicated compounds. Whole-cell lysates were obtained using high-salt buffer [50 mM HEPES, 500 mM NaCl, 1.5 mM MgCl2, 1 mM EGTA, 10% glycerol, and 1% Triton X-100, pH 7.5, and 5 μl/ml Protease Inhibitor Cocktail (Sigma-Aldrich)]. Protein samples were incubated at 100° C. for 2 min, separated on 10% SDS-PAGE at 120 V for 3 to 4 h in 1× running buffer (25 mM Tris-base, 192 mM glycine, and 0.1% SDS, pH 8.3), and transferred to polyvinylidene difluoride membrane (PVDF; Bio-Rad, Hercules, Calif.) at […] for 16 h at 4° C. in 1× transfer buffer (48 mM Tris-HCl, 39 mM glycine, and 0.025% SDS). The PVDF membrane was blocked in 5% TBST-Blotto (10 mM Tris-HCl, 150 mM NaCl, pH 8.0, 0.05% Triton X-100, and 5% nonfat dry milk) with gentle shaking for 30 min and was incubated in fresh 5% TBST-Blotto with 1:1000 (for caveolin-1, p27, p21, cyclin D1, Grp78), 1:500 (for KLF4, NAG-1), 1:250 (for PARP), and 1:5000 (for β-actin) primary antibody overnight with gentle shaking at 4° C. After washing with TBST for 10 min, the PVDF membrane was incubated with secondary antibody (1:5000) in 5% TBST-Blotto for 90 min. The membrane was washed with TBST for 10 min, incubated with 10 ml of chemiluminescence substrate (PerkinElmer) for 1.0 min, and exposed to Kodak X-OMAT AR autoradiography film (Eastman Kodak, Rochester, N.Y.).
# [1] = molecular target: T1, PPARγ-coactivator interactions (Homo sapiens, UniProt P37231); settings: SW480 cells, reference (22); cited from earlier work
# T1 construct: expressed in transfected cells; host or cells: SW480 cells, transient transfection (LipofectAMINE)
# T1 sequence (P37231 238-503 limits assumed): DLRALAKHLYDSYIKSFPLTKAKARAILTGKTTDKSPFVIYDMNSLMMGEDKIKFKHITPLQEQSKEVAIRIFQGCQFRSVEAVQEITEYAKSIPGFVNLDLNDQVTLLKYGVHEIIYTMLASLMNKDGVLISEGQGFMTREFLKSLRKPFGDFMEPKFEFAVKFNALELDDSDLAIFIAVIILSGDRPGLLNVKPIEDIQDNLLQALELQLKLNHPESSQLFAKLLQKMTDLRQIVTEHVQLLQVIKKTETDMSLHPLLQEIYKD
# PPARγ = settings: SW480 cells, previous studies (22); cited from earlier work
# p21 promoter = p21 promoter construct luciferase assay in LNCaP cells; assay type: cell-based; settings: 10 μM PD98059
# LNCaP cells = experiment: Western blot analysis and DNA fragmentation assay in LNCaP cells; assay type: cell-based, human; settings: 2.5 μM β-CDODA-Me, 24 hr
# Method: Cell Proliferation and DNA Fragmentation Assays: LNCaP prostate cancer cells (2×10^4 per well) were added to 12-well plates and allowed to attach for 24 hr. The medium was then changed to DMEM/Ham's F-12 media containing 2.5% charcoal-stripped FBS, and either vehicle (DMSO) or the indicated C-DIMs were added. Fresh medium and indicated compounds were added every 48 hr, and cells were then trypsinized and counted after 2, 4, and 6 days using a Coulter Z1 cell counter (Beckman Coulter, Fullerton, Calif.). Each experiment was done in triplicate, and results are expressed as means±S.E. for each set of three experiments. The DNA fragmentation assay was performed using a BioVision Apoptotic DNA ladder extraction kit (BioVision, Mountain View, Calif.) according to the manufacturer's protocol.
# Western Blot Analysis: Cells were seeded in DMEM:Ham's F-12 media containing 2.5% charcoal-stripped FBS for 24 hr and then treated with either the vehicle (DMSO) or the indicated compounds. Cells were collected by scraping in 150 μl high salt lysis buffer (50 mM HEPES, 0.5 M NaCl, 1.5 mM MgCl2, 1 mM EGTA, 10% (v/v) glycerol, 1% (v/v) Triton-X-100 and 5 μL/ml of Protease Inhibitor Cocktail (Sigma). The lysates were incubated on ice for 1 hr with intermittent vortexing followed by centrifugation at 20,000 g for 10 min at 4° C. Before electrophoresis, samples were boiled for 3 min at 100° C.; the amount of protein was determined and 60 μg protein applied per lane. Samples were subjected to SDS-PAGE on 10% gel at 120 V for 3 to 4 hr. Proteins were transferred on to polyvinylidene difluoride membrane (PVDF; Bio-Rad, Hercules, Calif.) at 0.9 amp for 90 min at 4° C. in 1× transfer buffer (48 mM Tris-HCl, 39 mM glycine, and 0.025% SDS). The membranes were blocked for 30 min with 5% TBST-Blotto (10 mM Tris-HCl, 150 mM NaCl (pH 8.0), 0.05% Triton X-100 and 5% non-fat dry milk) and incubated in fresh 5% TBST-Blotto with primary antibody overnight with gentle shaking at 4° C. After washing with TBST for 10 min, the PVDF membrane was incubated with secondary antibody (1:5000) in 5% TBST-Blotto for 2-3 hr. The membrane was washed with TBST for 10 min and incubated with 10 ml of chemiluminescence substrate (PerkinElmer Life Sciences) for 1.0 min and exposed to ImageTeK-H medical imaging film (Eastman American X-ray Supply, Inc.).
# [2] = tested on: Sp1, Sp3 and Sp4 in liver; experiment: Sp protein expression in non-target tissue (liver) of treated mice; assay type: in vivo; settings: preliminary results
# Source text: (i) Animal treatment: Male athymic nude mice are obtained from commercial sources and their use approved by the Institutional Animal Care and Use Committee. Ten animals are used for each treatment group and based on consultation with biostatisticians, this number is sufficient for determining statistical significance between treatment groups (41, 42). At least one AR-positive (LNCaP/22Rv1) and AR-negative (PC3/DU145) prostate cancer cell line is used in the xenograft study. Cells are harvested by exposure to trypsin and resuspended in serum-free Hanks' balanced salt solution (HBSS). […] In addition, Western blot analysis of Sp proteins, proapoptotic and antiangiogenic responses is determined on whole cell lysates from compound- and corn oil (vehicle)-treated tumors. Where possible (depending on the amount of protein extracted), the effects of the compound versus corn oil on expression of these proteins is quantitated and statistically analyzed. In addition, the effects of the compound on Sp protein expression in non-target tissue (e.g. liver and kidney) is determined. […] Immunostaining for Sp1, Sp3 and Sp4 and for angiogenic (VEGF, VEGFR1 and VEGFR2) and apoptotic (cleaved PARP, activated caspase 3, survivin and TUNEL) proteins/responses are determined as described above.
compound,measurement,setting,value
COC(=O)[C@]12CCC(C)(C)C[C@H]1[C@H]1C(=O)C=C3[C@@]4(C)C=C(C#N)C(=O)C(C)(C)[C@@H]4CC[C@@]3(C)[C@]1(C)CC2 [CDDO-Me],caveolin-1 protein expression,SW480 cells,induce caveolin-1 protein
same,"interactions between VP-PPARγ and GAL4-coactivator/corepressor chimeras (SRC1, SRC2, SRC3, PGC1, TRAP220, CARM1, SMRT)",[1],induced interactions
same,luciferase activity with GAL4-PPARγ/GAL4-Luc,PPARγ,induced luciferase activity
"COc1cccc(-c2cc(=O)c3ccccc3o2)c1N [PD98059, reference compound]",effect on β-CDODA-Me-induced p21-luc(101) luciferase activity,p21 promoter,inhibited this response
same,effect of kinase inhibitor on induction of ATF-3 by β-CDODA-Me,LNCaP cells,blocked induction
same,effect of kinase inhibitor on induction of NAG-1 by β-CDODA-Me,LNCaP cells,inhibited induction
same,effect on β-CDODA-Me downregulation of cyclin D1 and induction of p21,LNCaP cells,partially blocked
"COC(=O)[C@@]1(C)CCC2(C)CC[C@]3(C)C(=CC(=O)[C@@H]4C5(C)C=C(I)C(=O)C(C)(C)[C@@H]5CCC43C)C2C1 (stereo partly drawn) [β-IDODA-Me, Methyl 2-iodo-3,11-dioxo-18β-oleana-1,12-diene-30-oate]","Sp1, Sp3 and Sp4 expression in liver",[2],unaffected
